These results are taken from patent US20260109721A1, “IONIZABLE CATIONIC LIPIDS INCORPORATING SILICON: SYNTHESIS AND LNP FORMULATION” (priority 2023, published 2026).

The subject of series [1] is HeLa cells. Nature of the series: Transfection efficiency with GFP mRNA (Method B). The note with it: 24 h, GFP fluorescence. The class given is cell-based. The procedure: (§1) The synthesized lipids were tested in term of in vitro transfection efficacy and toxicity on HeLa cells. In order to perform the mentioned biological tests, appropriate LNPs had to be formulated from the synthesized lipids. The formulation technique was different in Method A and B. The particle size, polydispersity index (PDI) and zeta potential of resulting LNPs were determined by means of Dynamic Light Scattering technique (DLS). Prior to biological testing the encapsulation efficiency (EE) of the loaded LNPs was determined by using RiboGreen RNA assay. In case of Method A Luc mRNA while in case of Method B GFP mRNA was transfected into the cells. In parallel with the transfection experiments, toxicity of the investigated LNPs was determined, in case of Method A resazurin assay while in case of Method B MTT assay was used. Additionally, the toxicity of the lipids was investigated on HepG2 cells and IC50 values were determined.
In 1.5 mL eppendorf: • a) Place 2.9 uL of 0.33 ug/uL mRNA solution into Eppendorf tube • b) Add 1.94 μL of supplied ethanolic solution of tested lipid and immediately mix by working pipette up-and-down several times (work the solution up and down several times before transferring to saturate pipette tip with ethanol vapors) • c) Incubate for 15 minutes. • d) Add 536 μL of MEM. Mix the solution by vortexing. • e) Incubate for 30 minutes.
• MEM (Sigma, cat #M5650-500 mL) • Fetal Bovine Serum, FBS (Sigma, cat #F7524-500 mL) • Solutions of the formulations (see above) • Dilutor: 10 mL MEM+0,036 mL ethanol • Phosphate buffered saline, PBS
• 1. Fill the edge wells of a 96-well plate with 100 μL media. • 2. Plate 10,000 HeLa cells per well in 96 well plate. […] Total 60 wells should be seeded. Incubate in MEM+10% FBS at 37° C. in a humidified atmosphere with 5% CO2 for 24 h. • 3. Examine under the microscope. Confluency must be at or nearly 80%. • 4. Gently remove the media (aspirate). Place 50 μL of the following formulations: • a) 6 wells with dilutor—negative control • b) 6 wells with Lipofectamine-50—positive control. • c) 6 wells with Lipofectamine-6—secondary positive control • d) 6 wells per formulations—test samples. • 5. Incubate plate for 1 hours at 37° C. • 6. Add 50 μL of MEM+20% FBS (which will become 10% upon dilution). • 7. Place plates into the incubator at 37° C. in a humidified atmosphere with 5% CO2 for 23 h (total 24 hours of incubation). • 8. After 24 h, aspirate the media without disturbing the cells. Gently wash cells with 100 μL of warm PBS. Aspirate PBS. • 9. Add 100 μL of fresh PBS into washed cells and read GFP fluorescence on the plate reader. • 10. This can be followed with viability assessment with the MTT assay. Cell Viability Assessment with MTT Assay (Method B)

A further series concerns HepG2 cell line. In words: In vitro toxicity study on HepG2 cell line (resazurin, viability and IC50). The class given is cell-based, human. The note with it: for Viability (%) at different lipid concentrations, mean: HepG2 cells, 48 h post-treatment, relative to ethanol vehicle controls; for IC50: read-out: IC50 value, μM (on HepG2 cell). In a few lines:
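Resazurin read-out (ex 530/em 580 nm, 5 h at 37 °C) measured lipid toxicity 48 h after dosing HepG2 cells (1000/well) at 6.25–800 μM. Viability was normalised to ethanol vehicle, and IC50 was derived from concentration-response curves.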
For orientation: Alamar Blue is a resazurin reagent that responds to reducing activity.

Series [2] deals with HeLa cells. Nature of the series: Cell viability assessment with MTT assay (Method B). The series is classed as cell-based. The following applies: 24 h. The procedure:
as §1
• MEM (Sigma, cat #M5650-500 mL) • Fetal Bovine Serum, FBS (Sigma, cat #F7524-500 mL) • Thiazolyl Blue Tetrazolium Bromide, MTT (TCI Chemicals, cat #D0801-5G) • Solutions of the formulations (see “Preparation of GFP mRNA loaded LNP” protocol) • Dilutor: 10 mL MEM+0,036 mL ethanol • Phosphate buffered saline, PBS
• 1. Plate 10,000 HeLa cells per well in 96 well plate. […] Total 60 wells should be seeded. Incubate in MEM+10% FBS at 37° C. in a humidified atmosphere with 5% CO2 for 24 h. • 2. Examine under the microscope. Confluency must be at or nearly 80%. • 3. Gently remove the media (aspirate). Place 50 μL of the following formulations: • a) 6 wells with dilutor—negative control • b) 6 wells with Lipofectamine-50—positive control. • c) 6 wells with Lipofectamine-6—secondary positive control • d) 6 wells per formulations—test samples. • 4. Incubate plate for 1 hours at 37° C. • 5. Add 50 μL of MEM+20% FBS (which will become 10% upon dilution). • 6. […] Measure the absorbance of each well at 570 nm using a microplate reader. Measure the absorbance at a reference wavelength of 650 nm to subtract background absorbance. • 11. […]

The mark [3] stands for this setting: lipid toxicity, HepG2, 48 h post-treatment, resazurin, 6.25-800 μM.
Setting [4] is: Homo sapiens, lipid toxicity, HepG2, 48 h post-treatment, resazurin, 6.25-800 μM.

Where two headings read alike, the source gives them in different places. Some results are limits rather than exact numbers.

Broadly, the IC50 is the concentration that inhibits the measured activity by half. As to `CCCCCCCCC(CCCCCC)C(=O)OCCCCCCN(CCCCO)CCCCCCOC(=O)C(CCCCCC)CCCCCCCC` (stereo not drawn) [ALC-0315, reference compound], in the series with HeLa cells [1], the “Transfection 89 ng mRNA/well” value was found to be 15892.1. The “Viability (%) at different lipid concentrations, mean” value in the series with HepG2 cell line (6.25 μM lipid, resazurin) is 76.8%; in the series on HepG2 cell line (12.5 μM lipid, resazurin) it was 97.4%; with HepG2 cell line (25 μM lipid, resazurin), 95.4%; in the series with HepG2 cell line (50 μM lipid, resazurin), 91.6%; in the series on HepG2 cell line (100 μM lipid, resazurin) it was 84.2%; in the series with HepG2 cell line (200 μM lipid, resazurin), 58.9%. For the same compound, the “Viability (%) at different lipid concentrations, mean” value came out at 42.9% with HepG2 cell line (400 μM lipid, resazurin) and 20.9% in the series with HepG2 cell line (800 μM lipid, resazurin). In addition, the IC50 in the series on HepG2 cell line (setting [3]) is 299 µM.
Regarding `CCCCC/C=C\C/C=C\CCCCCCCCOC(CCCCCCC/C=C\C/C=C\CCCCC)O[Si](C)(C)OCCCCCCN1CCN(CCO)CC1` (stereo not drawn) [Example 58, 2-(4-((20Z,23Z)-10-((8Z,11Z)-heptadeca-8,11-dien-1-yl)-8,8-dimethyl-7,9,11-trioxa-8-silanonacosa-20,23-dien-1-yl)piperazin-1-yl)ethan-1-ol], the “Transfection 89 ng mRNA/well” value in the series with HeLa cells [1] is given as 50019.2. The “Viability (%) at different lipid concentrations, mean” value is given as 104.2% with HepG2 cell line (6.25 μM lipid, resazurin); 97.0% with HepG2 cell line (12.5 μM lipid, resazurin); 102.1% in the series on HepG2 cell line (25 μM lipid, resazurin); 101.2% with HepG2 cell line (50 μM lipid, resazurin); 104.1% with HepG2 cell line (100 μM lipid, resazurin); 101.6% with HepG2 cell line (200 μM lipid, resazurin). For the same compound, the “Viability (%) at different lipid concentrations, mean” value is listed as 40.3% with HepG2 cell line (400 μM lipid, resazurin) and 3.8% with HepG2 cell line (800 μM lipid, resazurin). In addition, in the series with HepG2 cell line (setting [4]), the IC50 was determined as 375 µM. Further, in the series with HeLa cells [2], the “Cell Viability %” value came to 52.1%.
Consider `CCCCCCCC/C=C\CCCCCCCCOC(=O)C(C)(C)CCC(OCCCCCCCC/C=C\CCCCCCCC)O[Si](C)(C)OCCCCCCN1CCOCC1` (stereo not drawn) [Example 95, (Z)-octadec-9-en-1-yl 5-((dimethyl((6-morpholinohexyl)oxy)silyl)oxy)-2,2-dimethyl-5-(((Z)-octadec-9-en-1-yl)oxy)pentanoate], for which the “Viability (%) at different lipid concentrations, mean” value in the series with HepG2 cell line (6.25 μM lipid, resazurin) is 102.8%; with HepG2 cell line (12.5 μM lipid, resazurin), 97.8%; in the series on HepG2 cell line (25 μM lipid, resazurin) it was 98.4%; in the series on HepG2 cell line (50 μM lipid, resazurin) it was 99.7%; in the series on HepG2 cell line (100 μM lipid, resazurin), 98.8%; in the series on HepG2 cell line (200 μM lipid, resazurin) it was 100.3%. The “Viability (%) at different lipid concentrations, mean” value in the series with HepG2 cell line (400 μM lipid, resazurin) stood at 103.6%; in the series with HepG2 cell line (800 μM lipid, resazurin), 104.6%. Also, the IC50 in the series with HepG2 cell line (setting [4]) is more than 800 µM.
For the compound `CCCCCCCC/C=C\CCCCCCCCOC(=O)C(C)(C)CC(OCCCCCCCC/C=C\CCCCCCCC)O[Si](C)(C)OCCCCCCN(CCO)CCN(CCO)CCCCCCO[Si](C)(C)OC(CC(C)(C)C(=O)OCCCCCCCC/C=C\CCCCCCCC)OCCCCCCCC/C=C\CCCCCCCC` (stereo not drawn) [Example 96, di((Z)-octadec-9-en-1-yl) 14,17-bis(2-hydroxyethyl)-2,2,6,6,25,25,29,29-octamethyl-4,27-bis(((Z)-octadec-9-en-1-yl)oxy)-5,7,24,26-tetraoxa-14,17-diaza-6,25-disilatriacontanedioate], the “Viability (%) at different lipid concentrations, mean” value in the series with HepG2 cell line (6.25 μM lipid, resazurin) stood at 98.62%; in the series with HepG2 cell line (12.5 μM lipid, resazurin), 98.94%; with HepG2 cell line (25 μM lipid, resazurin) it was 97.36%; in the series on HepG2 cell line (50 μM lipid, resazurin), 96.50%; in the series on HepG2 cell line (100 μM lipid, resazurin), 95.63%; in the series on HepG2 cell line (200 μM lipid, resazurin), 90.16%. The “Viability (%) at different lipid concentrations, mean” value in the series with HepG2 cell line (400 μM lipid, resazurin) is given as 67.88%; with HepG2 cell line (800 μM lipid, resazurin), 5.80%. The IC50 with HepG2 cell line (setting [4]) is 465 µM.
As to `C#CCN(C)CCCCCCO[Si](C)(C)OC(CC(C)(C)C(=O)OCCCCCCCC/C=C\CCCCCCCC)OCCCCCCCC/C=C\CCCCCCCC` (stereo not drawn) [Example 97, (Z)-octadec-9-en-1-yl 4,12,12,16,16-pentamethyl-14-(((Z)-octadec-9-en-1-yl)oxy)-11,13-dioxa-4-aza-12-silaheptadec-1-yn-17-oate], the “Viability (%) at different lipid concentrations, mean” value with HepG2 cell line (6.25 μM lipid, resazurin) is reported as 100.7%; in the series on HepG2 cell line (12.5 μM lipid, resazurin), 96.1%; in the series with HepG2 cell line (25 μM lipid, resazurin), 95.5%; in the series on HepG2 cell line (50 μM lipid, resazurin), 97.5%; with HepG2 cell line (100 μM lipid, resazurin) it was 98.9%; in the series with HepG2 cell line (200 μM lipid, resazurin), 99.7%. Also, the “Viability (%) at different lipid concentrations, mean” value is 91.8% in the series on HepG2 cell line (400 μM lipid, resazurin) and 0.7% in the series with HepG2 cell line (800 μM lipid, resazurin). Also, the half-inhibitory concentration (IC50) with HepG2 cell line (Homo sapiens, HepG2, 48 h) is 501 µM.
As to `CCCCCCCCCCCOC(=O)CCCCCN(CCO)CCCCCCCC(=O)OC(CCCCCCCC)CCCCCCCC` [SM-102, reference compound], the “Viability (%) at different lipid concentrations, mean” value came to 86.5% in the series with HepG2 cell line (6.25 μM lipid, resazurin); 101.5% in the series on HepG2 cell line (12.5 μM lipid, resazurin); 101.7% in the series with HepG2 cell line (25 μM lipid, resazurin); 101.4% with HepG2 cell line (50 μM lipid, resazurin); 21.2% in the series with HepG2 cell line (100 μM lipid, resazurin); 0.4% with HepG2 cell line (200 μM lipid, resazurin). Moreover, the “Viability (%) at different lipid concentrations, mean” value in the series with HepG2 cell line (400 μM lipid, resazurin) amounted to 0.2%; in the series with HepG2 cell line (800 μM lipid, resazurin) it was 0.0%. The IC50 with HepG2 cell line (setting [3]) amounted to 85 µM.
